{
  "source": "patent US10414721B1",
  "about": "“Inhibitor of endocannabinoid cellular reuptake” (University of Bern, priority 2018, dated 2019)",
  "key": {"[1]": {"tested_on": "2-AG uptake in Neuro2a cells", "assay": "2-AG uptake and hydrolysis in Neuro2a cells", "format": "cell-based, mouse", "procedure": "All radioactivity-based AEA and 2-AG uptake and release assays performed in U937, and HMC-1 cells were carried out using two different assay formats as previously reported. AEA and 2-AG uptake assay in Neuro2a and primary mouse cortical neurons were performed with a different method disclosed in Chicca 2017."}, "BALB/c mice [2]": {"tested_on": "BALB/c mice", "assay": "Tetrad test after i.p. administration", "format": "in vivo, mouse", "procedure": "(§1) WOBE437 was initially assessed in a battery of four individual tests typically associated with CB1 receptor activation in mice (nociception, locomotion, body temperature and cataleptic behavior), collectively referred to as the “tetrad”. Dose-response experiments identified 10 mg/kg as the lowest dose to elicit a moderate but complete tetrad in BALB/c mice upon intraperitoneal (i.p.) administration (FIGS. 3A-D). […] To assess whether the WOBE437-induced effects were CB1 receptor-mediated, mice were pre-treated with the selective antagonist/inverse agonist rimonabant (SR1). […] These experiments provided a proof-of-concept for the mechanism of action of WOBE437 as a novel “indirect CB1 receptor agonist”. In subsequent studies, the effects of WOBE437 in pain, inflammatory and anxiety models were investigated. […] Both effects were reversed by SR1.\n(§2) WOBE437 and RX-055 were tested in independent laboratories, in different mouse strains and in multiple (behavioral) models for cannabimimetic, analgesic, anti-inflammatory and anxiolytic-effects in wild-type and phenotypical CB1-KO mice as described in Chicca 2017."}, "BALB/c mice [3]": {"tested_on": "BALB/c mice", "assay": "Acetic acid-induced writhing test", "format": "in vivo, mouse", "details": "5 and 10 mg/kg", "procedure": "as §1, §2"}, "mice": {"tested_on": "mice", "assay": "Formalin test", "format": "in vivo, mouse", "details": "comparable to indomethacin (5 mg/kg)", "procedure": "as §1, §2"}, "C57BL6/N mice": {"tested_on": "C57BL6/N mice", "assay": "Elevated plus maze (EPM)", "format": "in vivo, mouse", "details": "3 mg/kg", "procedure": "as §1, §2"}, "BALB/c male mice": {"tested_on": "BALB/c male mice", "assay": "Endocannabinoid and NAE levels 1 h after oral administration", "format": "in vivo, mouse", "details": "for 2-AG level in plasma: control 16.1±2.9", "procedure": "Male C57BL6/J or male BALB/c mice were orally administered by gavage with 10, 25, 50 or 100 mg/kg of WOBE437 (100 μL; olive oil and ethanol 8:2) using a metal feeding needle (20G, Kent Scientific, USA). The mice were sacrificed by decapitation after gavage administration. Brain, blood, liver, kidney and spleen were collected for the LC-MS/MS analyses. All tissues were briefly washed with ice cold PBS and immediately snap-frozen and stored at −80° C. Whole brain samples were dissected between the hemispheres. Blood samples were immediately centrifuged to obtain plasma, which was stored at −80° C.\nSamples extractions and LC-MS/MS measurements were performed as previously described (Chicca et al., 2017). Briefly, tissues were weighted and transferred in to extraction tubes containing three steel beads and 0.1 M formic acid. Tissues were homogenized and rapidly transferred to glass tubes containing 1.5 mL of ethyl acetate:hexane (9:1) 0.1% formic acid and internal standards (ISs). Samples were centrifuged and the organic phase was recovered. After evaporation, the extracts were reconstituted in 200 μL of ACN:ddH2O (8:2). 10 μL of the solution were injected in the LC-MS/MS system using the same LC and ionization protocols as described (Chicca et al., 2017)."}},
  "data": [
    {"smiles": "CCCCCCC/C=C/C=C/C(=O)NCCc1ccc(OC)c(OC)c1", "note": "[WOBE437, (2E,4E)-N-[2-(3,4-Dimethoxyphenyl)ethyl]dodeca-2,4-dienamide]", "values": [
      {"measurement": "reduction of overall 2-AG uptake", "setting": "[1]; 5 μM, 2 and 5 min incubation", "value": 40, "unit": "%"},
      {"measurement": "effect on 2-AG uptake and hydrolysis", "setting": "[1]; Neuro2a cells, time course", "value": "only inhibited 2-AG uptake but not hydrolysis"},
      {"measurement": "tetrad response", "setting": "BALB/c mice [2]; 3 mg/kg", "value": "ineffective"},
      {"measurement": "tetrad response", "setting": "BALB/c mice [2]; 10 mg/kg", "value": "full tetrad response"},
      {"measurement": "tetrad in CB1 receptor-deficient littermates", "setting": "BALB/c mice [2]; C57BL6/N background", "value": "completely absent"},
      {"measurement": "tetrad effects after pre-treatment with rimonabant (SR1)", "setting": "BALB/c mice [2]; hypothermia, catalepsy and antinociception", "value": "completely blocked by SR1"},
      {"measurement": "hypothermia, catalepsy and antinociception compared to (R)-WIN55,212-2", "setting": "BALB/c mice [2]; i.p.", "value": "significantly less pronounced"},
      {"measurement": "lowest dose to elicit a complete tetrad", "setting": "BALB/c mice [2]; i.p., BALB/c mice", "value": 10, "unit": "mg/kg"},
      {"measurement": "abdominal stretches in the acetic writhing test", "setting": "BALB/c mice [3]", "value": "reduced number of abdominal stretches"},
      {"measurement": "inflammatory pain and paw thickness", "setting": "mice", "value": "reduced inflammatory pain and paw thickness"},
      {"measurement": "anxiolytic effect after SR1", "setting": "C57BL6/N mice", "value": "completely blocked by SR1"},
      {"measurement": "number of entries and time spent in open arms", "setting": "C57BL6/N mice; vs vehicle", "value": "significantly increased"},
      {"measurement": "2-AG level in plasma", "setting": "BALB/c male mice; 25 mg/kg p.o.", "value": "21.4 ± 4.5", "unit": "pmol/mL"},
      {"measurement": "reduction of AEA concentration in plasma", "setting": "BALB/c male mice; 50 mg/kg p.o.", "value": 23, "unit": "%"},
      {"measurement": "2-AG levels in somatosensory cortex", "setting": "BALB/c male mice; 50 mg/kg p.o., 1 h", "value": "no changes"},
      {"measurement": "AEA levels in somatosensory cortex", "setting": "BALB/c male mice; 50 mg/kg p.o., 1 h", "value": "significant increase"},
      {"measurement": "AEA concentration in plasma", "setting": "BALB/c male mice; 50 mg/kg p.o., control 2.6±0.2", "value": "2.2 ± 0.3", "unit": "pmol/mL"},
      {"measurement": "2-AG concentration in total brain", "setting": "BALB/c male mice; 50 mg/kg p.o., control 10.8±2.6", "value": "13.9 ± 2.6", "unit": "nmol/g"},
      {"measurement": "2-AG level in plasma", "setting": "BALB/c male mice; 50 mg/kg p.o.", "value": "22.6 ± 4.8", "unit": "pmol/mL"},
      {"measurement": "2-AG level in plasma", "setting": "BALB/c male mice; 100 mg/kg p.o.", "value": "23.8 ± 5.7", "unit": "pmol/mL"},
      {"measurement": "increase of 2-AG levels in plasma", "setting": "BALB/c male mice; 25, 50 and 100 mg/kg p.o.", "value": 40, "unit": "%"},
      {"measurement": "AEA and 2-AG levels in total brain", "setting": "BALB/c male mice; p.o., 1 h", "value": "tendency to increase"},
      {"measurement": "levels of N-acylethanolamines other than AEA", "setting": "BALB/c male mice; somatosensory cortex, total brain or plasma", "value": "No changes"}
    ]}
  ]
}
